The subject of series [1] is T. b. brucei (strain Lister 427). Description: Trypanosoma in vitro inhibition assay (resazurin). Type of series: cell-based. The following applies: for anti-trypanosomal activity at single concentration: 20 µM, T. brucei BSF in culture; for IC50: blood stream form, 24 h + 24 h resazurin, mean ± SD of three independent experiments, read-out: IC50 against T. brucei BSF in culture. Here is the method:
(§1) Compounds RUBi001, RUBi005, and RUBi015 were purchased from MCULE while RUBi002, RUBi004, RUBi007, RUBi008, RUBi010, RUBi011, RUBi012, RUBi014, RUBi016, and RUBi018 were obtained from MolPort (not all the compounds were commercially available). These compounds were assayed for trypanocidal activity by adding 20 μM of each compound to cultures of T. b. brucei (strain Lister 427) in 96-well plates. The parasites were maintained at 37 °C and 5% CO2 in an IMDM medium containing 25 mM HEPES, 10% fetal bovine serum, 1 mM hypoxanthine, 0.05 mM bathocuproine disulfonic acid, 1.5 mM cysteine, 1.25 mM pyruvic acid, 0.09 mM uracil, 0.09 mM cytosine, 0.16 mM thymidine, and 0.014 % 2-mercaptoethanol. Parasites were diluted to 2.4 × 10^4 cells in a volume of 200 µL per well and incubated with the test compounds for 24 h. Parasite percentage viability was determined using the resazurin method. Resazurin (0.5 mM in phosphate-buffered saline; 20 µL/well) was added to each well and incubation continued for a further 24 h, after which fluorescence (Ex560/Em590) was read in a Spectramax M3 microplate reader (Molecular Devices). Trypanocidal activity of the compounds was reported as the percentage of viable parasites in the compound-treated wells when compared to untreated controls (% viability). Pentamidine, an FDA-approved trypanocidal drug, was used as the control drug standard. For compounds that produced <20% viability, IC50 values were subsequently determined. The assays were conducted as described above, except that parasites were incubated with 3-fold serial dilutions of the test compounds and IC50 values derived from % parasite viability vs. log[compound] dose-response plots by non-linear regression analysis using GraphPad Prism (version 5.02, GraphPad Software Inc., San Diego, USA). IC50 evaluations were carried out on three independent occasions and the mean IC50 ± standard deviation is reported in the text. To assess compound interactions, the compounds were assayed for trypanocidal activity when used in combination with WR99210, a known TbDHFR inhibitor [42]. […] For isobologram analysis, the fractional inhibitory concentrations of the RUBi compounds and WR99210 were calculated by dividing the IC50s obtained for the compounds at the various combination ratios with the IC50 obtained for the compounds in the absence of the partner drug, and the FIC values plotted against each other, i.e., RUBi compound FIC versus WR99210 FIC.
(In general: Resazurin is reduced to fluorescent resorufin, in cell work by metabolically active cells.)

Series [2] has the same test system. The series can be described thus: Isobologram combination assay with WR99210. The format is cell-based. The settings on record: ratios 75:25, 50:50, 25:75 with TbDHFR inhibitor WR99210. Here is the method:
as §1

The subject of a further series is HeLa cells. Description: In vitro human cytotoxicity assay (resazurin). The settings on record: at 100 µM.
The nature of a further series: in vitro. The settings on record: human, HeLa cells.
Series [3] in a line: In vitro human cytotoxicity assay (resazurin). The settings on record: human, HeLa cells.
Method: (§2) The compounds assayed for trypanocidal activity were also tested to determine if they caused adverse effects against human cells in vitro. For this assay, HeLa cells were used. The cells were cultured in DMEM supplemented with 10% fetal calf serum and antibiotics (penicillin/streptomycin/amphotericin B) at 37 °C in a 5 % CO2 incubator. Cells were plated at a density of 2 × 10^4 cells/well and after an overnight incubation the compounds were assayed for cytotoxic activity by adding three-fold serial dilutions of each compound (with a 100 µM starting concentration) to the 96-well plates, followed by incubation for 48 h. Cell viability was determined using the resazurin method [74]. Resazurin (0.5 mM in phosphate-buffered saline; 20 µL/well) was added to the cells and, after a 2-h incubation, fluorescence was read in a Spectramax M3 plate reader at excitation and emission wavelengths of 560 nm and 590 nm, respectively. Fluorescence readings were converted to percentage cell viability relative to control wells untreated with compounds. Plots of % cell viability versus log[compound] were used to determine IC50 values by non-linear regression using GraphPad Prism (version 5.02, GraphPad Software Inc., San Diego, USA). Three repeats of the experiment were carried out.
A further series has as its system T. brucei in culture. The arrangement: method as in PMID 16729575, PMID 16569852. The following applies: cited from earlier work.

Values joined by “and” are separate entries in the source; they are usually repeats but may differ in a detail not shown here. Equal entries are not always repeated. “Also recorded” adds a separate entry of the source. Where two headings read alike, the source gives them in different places.

The IC50 is the point on the concentration scale where inhibition reaches its midpoint. What is called viability is a read-out of living cells in per cent, often relative to untreated cells.

Method for HeLa cells: as §2

Turning to `COc1cc(CNc2nc[nH]n2)ccc1OCc1cccc(C)c1` [RUBi008, [3-Methoxy-4-(3-methyl-benzyloxy)-benzyl]-(1H-[1,2,4]triazol-3-yl)-amine], the “anti-trypanosomal activity at single concentration” value (“anti-trypanosomal activity” below) in series [1] is on record as “did not show anti-trypanosomal activity”.

Take `Cn1c(=O)c2ncn(CC(=O)Nc3ccc(O)cc3)c2n(C)c1=O` [RUBi016, 2-(1,3-dimethyl-2,6-dioxo-1,2,3,6-tetrahydro-9H-purin-9-yl)-N-(4-hydroxyphenyl)acetamide]: the “effect in combination with WR99210 (isobologram, FIC)” value (from here on “effect … (isobologram, FIC)”) in series [2] is listed as “additive effect”. For the same compound, the half-maximal inhibitory concentration (IC50) in series [1] (Trypanosoma brucei, 48 h) is 25.4 ± 4.7 µM. Besides, in the series with HeLa cells, the human cell cytotoxicity entry was “no significant human (human cervix adenocarcinoma (HeLa)) cell cytotoxicity”. Also, the viability at 48 h, 100 µM in the series “in vitro” was greater than 90%.

For the compound `O=C(CC1S/C(=N\N=C2CCCC2)N=C1O)Nc1ccccc1` (stereo not drawn) [RUBi018, 2-[2-(cyclopentylidenehydrazono)-4-hydroxy-2,5-dihydro-1,3-thiazol-5-yl]-N-phenylacetamide], the “effect … (isobologram, FIC)” value in series [2] is recorded as “reduced inhibition; also recorded: moderate to strong antagonism; also recorded: antagonistic effect”. The IC50 in series [1] (Trypanosoma brucei, 48 h) is 12.7 ± 3.7 µM. Moreover, the human cell cytotoxicity entry in the series on HeLa cells is “no significant human (human cervix adenocarcinoma (HeLa)) cell cytotoxicity”. In the series “in vitro”, this compound had a viability at 48 h, 100 µM greater than 90%.

Take `Nc1ccc2nc(SCC(=O)N3CCCC3)sc2c1` [RUBi010, 2-{[2-oxo-2-(1-pyrrolidinyl)ethyl]sulfanyl}-1,3-benzothiazol-6-ylamine]: the “anti-trypanosomal activity” value in series [1] is reported as “did not show anti-trypanosomal activity”.

Consider `N=C(N)c1ccc(OCCCCCOc2ccc(C(=N)N)cc2)cc1` [pentamidine, reference compound], for which the IC50 in series [1] (Trypanosoma brucei, 48 h) was 0.014 µM.

`CC[C@H]1CN2CCc3cc(OC)c(OC)cc3[C@@H]2C[C@@H]1C[C@H]1NCCc2cc(OC)c(OC)cc21` [Emetine, reference compound] displayed an IC50 at 48 h in series [3] of 0.013 µM.

`Cc1ccc(NC(=O)Cn2c(-c3nonc3N)nc3ccccc32)cc1F` [RUBi011, 2-[2-(4-amino-1,2,5-oxadiazol-3-yl)-1H-benzimidazol-1-yl]-N-(3-fluoro-4-methylphenyl)acetamide]: the “anti-trypanosomal activity” value in series [1] is reported as “did not show anti-trypanosomal activity”.

Regarding `NS(=O)(=O)c1ccc(NC(=O)NC2CCCCC2)cc1` [RUBi012, 1-cyclohexyl-3-(4-sulfamoylphenyl)urea], the “anti-trypanosomal activity” value in series [1] is reported as “did not show anti-trypanosomal activity”.

For `COc1ccc(NC(=O)CSc2nc3[nH]ncc3c(=O)n2-c2ccccc2)cc1` [RUBi007, N-(4-methoxyphenyl)-2-[(4-oxo-5-phenyl-4,5-dihydro-1H-pyrazolo[3,4-d]pyrimidin-6-yl)sulfanyl]acetamide], the entries for the “effect … (isobologram, FIC)” value in series [2] and in series [2] (listed as RUB007) were “reduced inhibition; also recorded: moderate to strong antagonism; also recorded: antagonistic effects” and “antagonistic effect”, respectively. In addition, the 50% inhibitory concentration (IC50) in series [1] (Trypanosoma brucei, 48 h) turned out to be 34.9 ± 17.1 µM. The human cell cytotoxicity result in the series with HeLa cells is given as “no significant human (human cervix adenocarcinoma (HeLa)) cell cytotoxicity”. The viability at 48 h, 100 µM in the series “in vitro” is greater than 90%.

With `COc1ccc2oc3cc(OCC(=O)Nc4c(C)cccc4C)cc(O)c3c(=O)c2c1` [RUBi002, N-(2,6-dimethylphenyl)-2-(1-hydroxy-7-methoxy-9-oxo-xanthen-3-yl)oxy-acetamide], the “anti-trypanosomal activity” value in series [1] is given as “did not show anti-trypanosomal activity”.

In the case of `O=c1cc(-c2cccc(O)c2O)oc2ccc(O)cc12` [RUBi001, 2-(2,3-dihydroxyphenyl)-6-hydroxychromen-4-one], the “anti-trypanosomal activity” value in series [1] is reported as “did not show anti-trypanosomal activity”.

`CC1(C)N=C(N)N=C(N)N1OCCCOc1cc(Cl)c(Cl)cc1Cl` [WR99210, reference compound]: the IC50 in series [1] is 0.5 µM and 0.55 µM.

Turning to `Cc1ccccc1OCC(=O)NNC(=S)NC(=O)c1ccccc1[N+](=O)[O-]` [RUBi005, 2-nitro-N-({2-[(2-methylphenoxy)acetyl]hydrazino}carbothioyl)benzamide], the “anti-trypanosomal activity” value in series [1] was “did not show anti-trypanosomal activity”.

As for `CC1=NN(c2ccc(C)cc2C)C(=O)/C1=C/NNC(=O)c1cccc([N+](=O)[O-])c1` [RUBi004, N'-{[1-(2,4-dimethylphenyl)-3-methyl-5-oxo-1,5-dihydro-4H-pyrazol-4-ylidene]methyl}-3-nitrobenzohydrazide], the “effect … (isobologram, FIC)” value in series [2] was “reduced inhibition; also recorded: moderate to strong antagonism; also recorded: antagonistic effect”. In addition, the IC50 in series [1] (Trypanosoma brucei, 48 h) worked out at 9.6 ± 3.2 µM. In series [3], this compound came in with an IC50 at 48 h of 23.6 ± 5.8 µM.

Regarding `O=C1CC(c2ccc(O)c(O)c2)Oc2cc(O)cc(O)c21` (stereo not drawn) [RUBi014, 2-(3,4-dihydroxyphenyl)-5,7-dihydroxy-3,4-dihydro-2H-1-benzopyran-4-one], the “effect … (isobologram, FIC)” value in series [2] was “reduced inhibition; also recorded: moderate to strong antagonism; also recorded: antagonistic effect”. Also, in series [1] (Trypanosoma brucei, 48 h), the IC50 stood at 14.6 ± 9.9 µM. In series [3], the IC50 at 48 h was 32.9 ± 2.2 µM. Moreover, the anti-protozoal activity entry in the series with T. brucei in culture is “selectively anti-protozoal with activity against T. brucei in culture”.

Values taken from PMC6337619, “Identification of Novel Potential Inhibitors of Pteridine Reductase 1 in Trypanosoma brucei via Computational Structure-Based Approaches and in Vitro Inhibition Assays” (Molecules, 2019).
